{"source": "paper PMC10905675", "about": "“INX-315, a Selective CDK2 Inhibitor, Induces Cell Cycle Arrest and Senescence in Solid Tumors” (Cancer Discovery, 2023)", "assay_in_all_cases": "SelectScreen ZLYTE", "type_in_all_cases": "biochemical", "conditions_in_all_cases": "INX-0315 at 100nM", "key": {"[1]": {"biological_target": "T1, IRAK4 (Homo sapiens, UniProt Q9NWZ3)", "T1 construct": "purchased Thermo Fisher Scientific SelectScreen (plus Nanosyn / Reaction Biology for CDK/cyclin lines)", "how_it_was_run": "(§1)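 INX-315, single point 100 nmol/L, 1% DMSO; then 10-pt titration 1 µmol/L → 0.0495 nmol/L. Standard vendor conditions.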"}, "[2]": {"biological_target": "T2, AMPK (A1/B2/G3) (Homo sapiens, UniProt Q13131)", "T2 construct": "purchased Thermo Fisher Scientific SelectScreen (plus Nanosyn / Reaction Biology for CDK/cyclin lines)", "how_it_was_run": "as §1"}, "[3]": {"biological_target": "T3, AMPK (A2/B2/G3) (Homo sapiens, UniProt P54646)", "T3 construct": "purchased Thermo Fisher Scientific SelectScreen (plus Nanosyn / Reaction Biology for CDK/cyclin lines)", "how_it_was_run": "as §1"}, "[4]": {"biological_target": "T4, ADRBK2 (GRK3) (Homo sapiens, UniProt P35626)", "T4 construct": "purchased Thermo Fisher Scientific SelectScreen (plus Nanosyn / Reaction Biology for CDK/cyclin lines)", "how_it_was_run": "as §1"}, "[5]": {"biological_target": "T5, MAPKAPK3 (Homo sapiens, UniProt Q16644)", "T5 construct": "purchased Thermo Fisher Scientific SelectScreen (plus Nanosyn / Reaction Biology for CDK/cyclin lines)", "how_it_was_run": "as §1"}, "[6]": {"biological_target": "T6, AKT3 (PKB gamma) (Homo sapiens, UniProt Q9Y243)", "T6 construct": "purchased Thermo Fisher Scientific SelectScreen (plus Nanosyn / Reaction Biology for CDK/cyclin lines)", "how_it_was_run": "as §1"}, "[7]": {"biological_target": "T7, CSK (Homo sapiens, UniProt P41240)", "T7 construct": "purchased Thermo Fisher Scientific SelectScreen (plus Nanosyn / Reaction Biology for CDK/cyclin lines)", "how_it_was_run": "as §1"}, "[8]": {"biological_target": "T8, PRKX (Homo sapiens, UniProt P51817)", "T8 construct": "purchased Thermo Fisher Scientific SelectScreen (plus Nanosyn / Reaction Biology for CDK/cyclin lines)", "how_it_was_run": "as §1"}, "[9]": {"biological_target": "T9, FGR (Homo sapiens, UniProt P09769)", "T9 construct": "purchased Thermo Fisher Scientific SelectScreen (plus Nanosyn / Reaction Biology for CDK/cyclin lines)", "how_it_was_run": "as §1"}, "[10]": {"biological_target": "T10, MAPK14 (p38 alpha) Direct (Homo sapiens, UniProt Q16539)", "T10 construct": "purchased Thermo Fisher Scientific SelectScreen (plus Nanosyn / Reaction Biology for CDK/cyclin lines)", "how_it_was_run": "as §1"}, "[11]": {"biological_target": "T11, CHEK2 (CHK2) (Homo sapiens, UniProt O96017)", "T11 construct": "purchased Thermo Fisher Scientific SelectScreen (plus Nanosyn / Reaction Biology for CDK/cyclin lines)", "how_it_was_run": "as §1"}, "[12]": {"biological_target": "T12, SGK2 (Homo sapiens, UniProt Q9HBY8)", "T12 construct": "purchased Thermo Fisher Scientific SelectScreen (plus Nanosyn / Reaction Biology for CDK/cyclin lines)", "how_it_was_run": "as §1"}, "[13]": {"biological_target": "T13, CDK1/cyclin B (Homo sapiens, UniProt P06493)", "T13 construct": "purchased Thermo Fisher Scientific SelectScreen (plus Nanosyn / Reaction Biology for CDK/cyclin lines)", "how_it_was_run": "as §1"}, "[14]": {"biological_target": "T14, HIPK1 (Myak) (Homo sapiens, UniProt Q86Z02)", "T14 construct": "purchased Thermo Fisher Scientific SelectScreen (plus Nanosyn / Reaction Biology for CDK/cyclin lines)", "how_it_was_run": "as §1"}, "[15]": {"biological_target": "T15, EGFR (ErbB1) L858R (Homo sapiens, UniProt P00533, L858R)", "T15 construct": "purchased Thermo Fisher Scientific SelectScreen (plus Nanosyn / Reaction Biology for CDK/cyclin lines)", "how_it_was_run": "as §1"}, "[16]": {"biological_target": "T16, MELK (Homo sapiens, UniProt Q14680)", "T16 construct": "purchased Thermo Fisher Scientific SelectScreen (plus Nanosyn / Reaction Biology for CDK/cyclin lines)", "how_it_was_run": "as §1"}, "[17]": {"biological_target": "T17, NEK1 (Homo sapiens, UniProt Q96PY6)", "T17 construct": "purchased Thermo Fisher Scientific SelectScreen (plus Nanosyn / Reaction Biology for CDK/cyclin lines)", "how_it_was_run": "as §1"}, "[18]": {"biological_target": "T18, BRAF (Homo sapiens, UniProt P15056)", "T18 construct": "purchased Thermo Fisher Scientific SelectScreen (plus Nanosyn / Reaction Biology for CDK/cyclin lines)", "how_it_was_run": "as §1"}, "[19]": {"biological_target": "T19, PRKCA (PKC alpha) (Homo sapiens, UniProt P17252)", "T19 construct": "purchased Thermo Fisher Scientific SelectScreen (plus Nanosyn / Reaction Biology for CDK/cyclin lines)", "how_it_was_run": "as §1"}, "[20]": {"biological_target": "T20, PDGFRA D842V (Homo sapiens, UniProt P16234, D842V)", "T20 construct": "purchased Thermo Fisher Scientific SelectScreen (plus Nanosyn / Reaction Biology for CDK/cyclin lines)", "T20 sequence (P16234 24-1089 D842V)": "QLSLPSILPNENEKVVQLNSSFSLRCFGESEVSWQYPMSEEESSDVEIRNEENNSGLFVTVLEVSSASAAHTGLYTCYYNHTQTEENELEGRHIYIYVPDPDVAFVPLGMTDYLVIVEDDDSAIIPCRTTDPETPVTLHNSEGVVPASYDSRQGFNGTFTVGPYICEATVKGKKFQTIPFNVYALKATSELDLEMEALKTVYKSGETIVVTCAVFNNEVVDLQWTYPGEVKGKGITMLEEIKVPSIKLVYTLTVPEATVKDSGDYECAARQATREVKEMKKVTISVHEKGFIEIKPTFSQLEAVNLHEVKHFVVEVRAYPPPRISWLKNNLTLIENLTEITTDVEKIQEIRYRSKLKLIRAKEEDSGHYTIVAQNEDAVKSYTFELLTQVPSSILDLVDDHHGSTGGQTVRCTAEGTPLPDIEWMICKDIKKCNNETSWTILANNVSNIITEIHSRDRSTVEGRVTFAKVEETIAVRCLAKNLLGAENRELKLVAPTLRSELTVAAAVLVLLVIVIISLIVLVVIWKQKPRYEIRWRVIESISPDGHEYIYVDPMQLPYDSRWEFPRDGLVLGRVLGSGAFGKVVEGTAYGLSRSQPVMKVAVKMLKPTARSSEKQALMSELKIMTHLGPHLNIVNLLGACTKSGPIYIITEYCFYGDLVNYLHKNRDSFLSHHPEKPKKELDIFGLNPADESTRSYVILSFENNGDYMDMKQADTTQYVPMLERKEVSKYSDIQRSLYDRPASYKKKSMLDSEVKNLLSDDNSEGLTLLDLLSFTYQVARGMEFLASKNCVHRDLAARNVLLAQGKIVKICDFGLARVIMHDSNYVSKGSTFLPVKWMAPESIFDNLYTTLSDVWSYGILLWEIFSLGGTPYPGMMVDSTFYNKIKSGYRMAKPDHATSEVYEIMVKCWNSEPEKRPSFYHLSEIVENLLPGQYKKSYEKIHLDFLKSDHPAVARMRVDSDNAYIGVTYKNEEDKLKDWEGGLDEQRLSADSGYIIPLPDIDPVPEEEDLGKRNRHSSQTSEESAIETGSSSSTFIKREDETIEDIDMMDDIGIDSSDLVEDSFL", "how_it_was_run": "as §1"}, "[21]": {"biological_target": "T21, PHKG2 (Homo sapiens, UniProt P15735)", "T21 construct": "purchased Thermo Fisher Scientific SelectScreen (plus Nanosyn / Reaction Biology for CDK/cyclin lines)", "how_it_was_run": "as §1"}, "[22]": {"biological_target": "T22, STK4 (MST1) (Homo sapiens, UniProt Q13043)", "T22 construct": "purchased Thermo Fisher Scientific SelectScreen (plus Nanosyn / Reaction Biology for CDK/cyclin lines)", "how_it_was_run": "as §1"}, "[23]": {"biological_target": "T23, JAK1 (Homo sapiens, UniProt P23458)", "T23 construct": "purchased Thermo Fisher Scientific SelectScreen (plus Nanosyn / Reaction Biology for CDK/cyclin lines)", "how_it_was_run": "as §1"}, "[24]": {"biological_target": "T24, TEK (Tie2) (Homo sapiens, UniProt Q02763)", "T24 construct": "purchased Thermo Fisher Scientific SelectScreen (plus Nanosyn / Reaction Biology for CDK/cyclin lines)", "T24 sequence (Q02763 23-1124)": "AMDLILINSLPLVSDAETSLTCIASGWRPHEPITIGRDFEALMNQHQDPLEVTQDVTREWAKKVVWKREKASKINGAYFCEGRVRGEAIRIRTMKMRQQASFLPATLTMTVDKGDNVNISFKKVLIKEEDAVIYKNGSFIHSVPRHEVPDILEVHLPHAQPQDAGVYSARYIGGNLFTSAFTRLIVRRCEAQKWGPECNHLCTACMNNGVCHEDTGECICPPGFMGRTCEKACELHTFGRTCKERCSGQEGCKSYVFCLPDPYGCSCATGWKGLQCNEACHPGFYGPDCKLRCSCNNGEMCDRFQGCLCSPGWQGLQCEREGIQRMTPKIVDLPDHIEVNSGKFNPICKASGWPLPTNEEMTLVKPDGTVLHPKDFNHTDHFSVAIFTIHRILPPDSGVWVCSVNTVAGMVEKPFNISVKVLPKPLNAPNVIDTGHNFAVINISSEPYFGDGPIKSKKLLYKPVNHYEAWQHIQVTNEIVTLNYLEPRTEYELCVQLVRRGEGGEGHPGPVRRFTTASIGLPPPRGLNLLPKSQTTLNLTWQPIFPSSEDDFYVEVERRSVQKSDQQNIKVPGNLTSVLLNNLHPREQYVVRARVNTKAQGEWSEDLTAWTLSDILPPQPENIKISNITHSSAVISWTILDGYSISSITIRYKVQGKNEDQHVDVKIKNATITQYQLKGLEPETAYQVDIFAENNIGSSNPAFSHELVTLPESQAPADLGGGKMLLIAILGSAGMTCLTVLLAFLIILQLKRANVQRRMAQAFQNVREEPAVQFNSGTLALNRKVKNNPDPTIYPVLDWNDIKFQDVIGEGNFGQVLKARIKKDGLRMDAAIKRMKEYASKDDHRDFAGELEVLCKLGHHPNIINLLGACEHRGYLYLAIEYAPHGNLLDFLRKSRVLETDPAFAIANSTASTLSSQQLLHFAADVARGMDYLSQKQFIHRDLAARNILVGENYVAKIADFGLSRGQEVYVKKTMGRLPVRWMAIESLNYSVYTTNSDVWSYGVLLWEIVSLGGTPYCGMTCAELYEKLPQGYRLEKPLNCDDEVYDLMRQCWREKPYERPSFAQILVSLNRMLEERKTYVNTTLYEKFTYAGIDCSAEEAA", "how_it_was_run": "as §1"}, "[25]": {"biological_target": "T25, CSNK2A1 (CK2 alpha 1) (Homo sapiens, UniProt P68400)", "T25 construct": "purchased Thermo Fisher Scientific SelectScreen (plus Nanosyn / Reaction Biology for CDK/cyclin lines)", "how_it_was_run": "as §1"}, "[26]": {"biological_target": "T26, FRK (PTK5) (Homo sapiens, UniProt P42685)", "T26 construct": "purchased Thermo Fisher Scientific SelectScreen (plus Nanosyn / Reaction Biology for CDK/cyclin lines)", "how_it_was_run": "as §1"}, "[27]": {"biological_target": "T27, PHKG1 (Homo sapiens, UniProt Q16816)", "T27 construct": "purchased Thermo Fisher Scientific SelectScreen (plus Nanosyn / Reaction Biology for CDK/cyclin lines)", "how_it_was_run": "as §1"}, "[28]": {"biological_target": "T28, PRKCB2 (PKC beta II) (Homo sapiens, UniProt P05771)", "T28 construct": "purchased Thermo Fisher Scientific SelectScreen (plus Nanosyn / Reaction Biology for CDK/cyclin lines)", "T28 sequence (P05771 1-673 isoform P05771-2)": "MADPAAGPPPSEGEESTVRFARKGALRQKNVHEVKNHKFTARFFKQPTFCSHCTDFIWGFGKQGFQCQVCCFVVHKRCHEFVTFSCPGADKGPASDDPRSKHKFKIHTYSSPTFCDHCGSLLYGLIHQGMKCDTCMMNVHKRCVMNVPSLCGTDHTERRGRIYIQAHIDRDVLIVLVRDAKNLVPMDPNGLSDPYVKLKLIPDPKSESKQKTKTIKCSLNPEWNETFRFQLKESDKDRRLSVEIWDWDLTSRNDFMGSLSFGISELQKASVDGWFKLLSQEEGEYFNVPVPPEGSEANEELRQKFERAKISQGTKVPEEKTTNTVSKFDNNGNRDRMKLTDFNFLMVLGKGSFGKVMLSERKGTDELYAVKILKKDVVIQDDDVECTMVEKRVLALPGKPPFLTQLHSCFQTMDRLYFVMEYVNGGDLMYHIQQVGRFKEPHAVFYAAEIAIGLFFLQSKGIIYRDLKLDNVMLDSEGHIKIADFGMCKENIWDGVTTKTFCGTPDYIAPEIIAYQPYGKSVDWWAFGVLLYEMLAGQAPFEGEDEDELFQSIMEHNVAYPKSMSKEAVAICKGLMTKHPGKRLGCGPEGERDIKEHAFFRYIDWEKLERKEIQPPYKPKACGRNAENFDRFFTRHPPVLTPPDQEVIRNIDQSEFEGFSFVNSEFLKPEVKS", "how_it_was_run": "as §1"}, "[29]": {"biological_target": "T29, BMX (Homo sapiens, UniProt P51813)", "T29 construct": "purchased Thermo Fisher Scientific SelectScreen (plus Nanosyn / Reaction Biology for CDK/cyclin lines)", "how_it_was_run": "as §1"}, "[30]": {"biological_target": "T30, MST4 (Homo sapiens, UniProt Q9P289)", "T30 construct": "purchased Thermo Fisher Scientific SelectScreen (plus Nanosyn / Reaction Biology for CDK/cyclin lines)", "how_it_was_run": "as §1"}, "[31]": {"biological_target": "T31, MATK (HYL) (Homo sapiens, UniProt P42679)", "T31 construct": "purchased Thermo Fisher Scientific SelectScreen (plus Nanosyn / Reaction Biology for CDK/cyclin lines)", "how_it_was_run": "as §1"}, "[32]": {"biological_target": "T32, CSF1R (FMS) (Homo sapiens, UniProt P07333)", "T32 construct": "purchased Thermo Fisher Scientific SelectScreen (plus Nanosyn / Reaction Biology for CDK/cyclin lines)", "how_it_was_run": "as §1"}, "[33]": {"biological_target": "T33, FRAP1 (mTOR) (Homo sapiens, UniProt P42345)", "T33 construct": "purchased Thermo Fisher Scientific SelectScreen (plus Nanosyn / Reaction Biology for CDK/cyclin lines)", "how_it_was_run": "as §1"}, "[34]": {"biological_target": "T34, RET V804L (Homo sapiens, UniProt P07949, V804L)", "T34 construct": "purchased Thermo Fisher Scientific SelectScreen (plus Nanosyn / Reaction Biology for CDK/cyclin lines)", "T34 sequence (P07949 29-1114 V804L)": "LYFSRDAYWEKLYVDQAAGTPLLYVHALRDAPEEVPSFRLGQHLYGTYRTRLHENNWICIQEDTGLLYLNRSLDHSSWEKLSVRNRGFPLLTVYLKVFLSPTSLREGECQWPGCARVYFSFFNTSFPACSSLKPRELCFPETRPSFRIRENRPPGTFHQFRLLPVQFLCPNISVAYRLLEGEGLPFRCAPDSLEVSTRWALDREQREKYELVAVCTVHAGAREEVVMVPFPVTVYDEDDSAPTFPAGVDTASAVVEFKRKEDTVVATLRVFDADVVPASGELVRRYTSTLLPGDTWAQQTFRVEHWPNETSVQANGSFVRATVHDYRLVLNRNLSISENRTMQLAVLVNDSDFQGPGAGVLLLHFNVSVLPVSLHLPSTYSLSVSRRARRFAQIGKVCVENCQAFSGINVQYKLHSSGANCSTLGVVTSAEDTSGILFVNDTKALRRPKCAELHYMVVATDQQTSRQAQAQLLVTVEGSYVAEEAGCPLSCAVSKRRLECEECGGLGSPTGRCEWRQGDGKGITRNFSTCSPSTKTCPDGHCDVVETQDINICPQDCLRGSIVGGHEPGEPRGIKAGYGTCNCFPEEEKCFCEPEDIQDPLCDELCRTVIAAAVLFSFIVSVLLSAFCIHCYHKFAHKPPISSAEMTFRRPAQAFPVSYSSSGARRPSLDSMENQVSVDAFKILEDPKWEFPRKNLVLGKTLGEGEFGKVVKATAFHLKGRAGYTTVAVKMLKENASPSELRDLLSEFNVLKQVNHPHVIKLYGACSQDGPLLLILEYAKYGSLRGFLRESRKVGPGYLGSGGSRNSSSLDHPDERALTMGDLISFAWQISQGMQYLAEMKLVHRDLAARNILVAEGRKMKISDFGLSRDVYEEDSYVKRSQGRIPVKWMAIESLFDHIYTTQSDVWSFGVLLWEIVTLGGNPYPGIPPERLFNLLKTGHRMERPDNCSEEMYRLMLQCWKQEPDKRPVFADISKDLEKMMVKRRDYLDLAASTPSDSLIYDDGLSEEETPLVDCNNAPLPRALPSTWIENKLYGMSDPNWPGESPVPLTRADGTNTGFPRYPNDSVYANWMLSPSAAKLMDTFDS", "how_it_was_run": "as §1"}, "[35]": {"biological_target": "T35, AMPK (A1/B2/G2) (Homo sapiens, UniProt Q13131)", "T35 construct": "purchased Thermo Fisher Scientific SelectScreen (plus Nanosyn / Reaction Biology for CDK/cyclin lines)", "how_it_was_run": "as §1"}, "[36]": {"biological_target": "T36, PDGFRA T674I (Homo sapiens, UniProt P16234, T674I)", "T36 construct": "purchased Thermo Fisher Scientific SelectScreen (plus Nanosyn / Reaction Biology for CDK/cyclin lines)", "T36 sequence (P16234 24-1089 T674I)": "as the sequence (P16234 24-1089 D842V) above, with T651I, V819D counted along it", "how_it_was_run": "as §1"}, "[37]": {"biological_target": "T37, CSNK1G1 (CK1 gamma 1) (Homo sapiens, UniProt Q9HCP0)", "T37 construct": "purchased Thermo Fisher Scientific SelectScreen (plus Nanosyn / Reaction Biology for CDK/cyclin lines)", "T37 sequence (Q9HCP0 whole entry)": "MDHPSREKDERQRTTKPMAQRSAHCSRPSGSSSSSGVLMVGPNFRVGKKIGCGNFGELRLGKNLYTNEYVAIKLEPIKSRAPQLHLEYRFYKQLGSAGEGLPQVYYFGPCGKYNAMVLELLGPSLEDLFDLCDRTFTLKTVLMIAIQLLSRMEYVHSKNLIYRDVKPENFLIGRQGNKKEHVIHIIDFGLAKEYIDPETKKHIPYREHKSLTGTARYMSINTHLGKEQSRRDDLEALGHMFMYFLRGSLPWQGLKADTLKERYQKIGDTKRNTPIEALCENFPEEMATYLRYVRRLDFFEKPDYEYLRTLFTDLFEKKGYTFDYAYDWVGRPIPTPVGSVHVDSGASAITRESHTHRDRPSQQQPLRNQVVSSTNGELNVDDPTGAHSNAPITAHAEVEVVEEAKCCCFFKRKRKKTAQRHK", "how_it_was_run": "as §1"}}, "data": [{"smiles": "NS(=O)(=O)c1ccc(Nc2ncc3cc4n(c3n2)C2(CCCCC2)C(=O)NN4)cc1", "note": "[INX-315]", "values": [{"measurement": "inhibition at 0.1 µM", "setting": "[1]", "result": 10, "unit": "%"}, {"measurement": "inhibition at 0.1 µM", "setting": "[2]", "result": 60, "unit": "%"}, {"measurement": "inhibition at 0.1 µM", "setting": "[3]", "result": 32, "unit": "%"}, {"measurement": "inhibition at 0.1 µM", "setting": "[4]", "result": 1, "unit": "%"}, {"measurement": "inhibition at 0.1 µM", "setting": "[5]", "result": 8, "unit": "%"}, {"measurement": "inhibition at 0.1 µM", "setting": "[6]", "result": 6, "unit": "%"}, {"measurement": "inhibition at 0.1 µM", "setting": "[7]", "result": 1, "unit": "%"}, {"measurement": "inhibition at 0.1 µM", "setting": "[8]", "result": 3, "unit": "%"}, {"measurement": "inhibition at 0.1 µM", "setting": "[9]", "result": 11, "unit": "%"}, {"measurement": "inhibition at 0.1 µM", "setting": "[10]", "result": 5, "unit": "%"}, {"measurement": "inhibition at 0.1 µM", "setting": "[11]", "result": 7, "unit": "%"}, {"measurement": "inhibition at 0.1 µM", "setting": "[12]", "result": 5, "unit": "%"}, {"measurement": "inhibition at 0.1 µM", "setting": "[13]", "result": 58, "unit": "%"}, {"measurement": "inhibition at 0.1 µM", "setting": "[14]", "result": 6, "unit": "%"}, {"measurement": "inhibition at 0.1 µM", "setting": "[15]", "result": 1, "unit": "%"}, {"measurement": "inhibition at 0.1 µM", "setting": "[16]", "result": 10, "unit": "%"}, {"measurement": "inhibition at 0.1 µM", "setting": "[17]", "result": -10, "unit": "%"}, {"measurement": "inhibition at 0.1 µM", "setting": "[18]", "result": 11, "unit": "%"}, {"measurement": "inhibition at 0.1 µM", "setting": "[19]", "result": 9, "unit": "%"}, {"measurement": "inhibition at 0.1 µM", "setting": "[20]", "result": 13, "unit": "%"}, {"measurement": "inhibition at 0.1 µM", "setting": "[21]", "result": 2, "unit": "%"}, {"measurement": "inhibition at 0.1 µM", "setting": "[22]", "result": 26, "unit": "%"}, {"measurement": "inhibition at 0.1 µM", "setting": "[23]", "result": 78, "unit": "%"}, {"measurement": "inhibition at 0.1 µM", "setting": "[24]", "result": -1, "unit": "%"}, {"measurement": "inhibition at 0.1 µM", "setting": "[25]", "result": 6, "unit": "%"}, {"measurement": "inhibition at 0.1 µM", "setting": "[26]", "result": 7, "unit": "%"}, {"measurement": "inhibition at 0.1 µM", "setting": "[27]", "result": 4, "unit": "%"}, {"measurement": "inhibition at 0.1 µM", "setting": "[28]", "result": 13, "unit": "%"}, {"measurement": "inhibition at 0.1 µM", "setting": "[29]", "result": 22, "unit": "%"}, {"measurement": "inhibition at 0.1 µM", "setting": "[30]", "result": -4, "unit": "%"}, {"measurement": "inhibition at 0.1 µM", "setting": "[31]", "result": 6, "unit": "%"}, {"measurement": "inhibition at 0.1 µM", "setting": "[32]", "result": 95, "unit": "%"}, {"measurement": "inhibition at 0.1 µM", "setting": "[33]", "result": 0, "unit": "%"}, {"measurement": "inhibition at 0.1 µM", "setting": "[34]", "result": 35, "unit": "%"}, {"measurement": "inhibition at 0.1 µM", "setting": "[35]", "result": 55, "unit": "%"}, {"measurement": "inhibition at 0.1 µM", "setting": "[36]", "result": -1, "unit": "%"}, {"measurement": "inhibition at 0.1 µM", "setting": "[37]", "result": 1, "unit": "%"}]}]}
